Measurements as given in patent US20070299092A1 (Wyeth, priority 2004, published 2007).
“And” between values parts separate entries of the source, which are not always exact repeats. Identical values can stand only once. Like-named read-outs stand apart in the source and are kept apart here.

Assays:
[1] = molecular target: T1, human KDR (VEGF-receptor-2) (Homo sapiens, UniProt P35968); experiment: KDR kinase enzyme assay wash-out experiments (irreversible inhibition); format: biochemical
T1 construct: beginning at Met-806; (5′-ATG GAT CCA GAT GM CTC CCA TTG) and ending at Val-1356; made in house

[2] = test system: Human umbilical vein endothelial cells (HUVEC); experiment: HUVEC proliferation assay, VEGF-dependent growth ([3H]-thymidine incorporation); format: cell-based; conditions: for inhibition at 0.1 µM / inhibition at 1 µM / inhibition at 10 µM: Homo sapiens, HUVEC
Summary of the method: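 HUVEC seeded 4000 cells/well, attached overnight, then given compound in serum/VEGF-free EBM plus 50 ng/ml VEGF (final); parallel plates used EGM2 with 2% serum lacking VEGF. Incubation 4-5 days at 37° C. DNA synthesis measured by 5 h [3H]-thymidine (1 μCi/well) incorporation, scintillation-counted.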

[3] = molecular target: T2, KDR (Homo sapiens, UniProt P35968); experiment: cell-based; conditions: for IC50: IC50 (nM), inhibition of KDR kinase autophosphorylation in KDR15 cells, KDR15 cells, VEGF 50 ng/ml, phospho-KDR-Y996 immunoblot; for inhibition at 1 µM: read-out: % Inhibition of KDR kinase autophosphorylation in KDR15 cells, compound conc. 1000 nM
[4] = molecular target: T1, human KDR (VEGF-receptor-2); experiment: KDR kinase enzyme assay (DELFIA, KDR-IC-Flag, poly(Glu4-Tyr) peptide); format: biochemical; conditions: for inhibition at 1 µM / inhibition at 0.1 µM: read-out: % Inhibition
[5] = molecular target: T2, KDR; conditions: compound conc. 1000 nM
[6] = Concentration 1000 nM, ATP conc. 10 μM
[7] = Concentration 1000 nM, ATP conc. 1000 μM
[8] = Concentration 100 nM, ATP conc. 10 μM

T2 sequence (P35968 20-1356): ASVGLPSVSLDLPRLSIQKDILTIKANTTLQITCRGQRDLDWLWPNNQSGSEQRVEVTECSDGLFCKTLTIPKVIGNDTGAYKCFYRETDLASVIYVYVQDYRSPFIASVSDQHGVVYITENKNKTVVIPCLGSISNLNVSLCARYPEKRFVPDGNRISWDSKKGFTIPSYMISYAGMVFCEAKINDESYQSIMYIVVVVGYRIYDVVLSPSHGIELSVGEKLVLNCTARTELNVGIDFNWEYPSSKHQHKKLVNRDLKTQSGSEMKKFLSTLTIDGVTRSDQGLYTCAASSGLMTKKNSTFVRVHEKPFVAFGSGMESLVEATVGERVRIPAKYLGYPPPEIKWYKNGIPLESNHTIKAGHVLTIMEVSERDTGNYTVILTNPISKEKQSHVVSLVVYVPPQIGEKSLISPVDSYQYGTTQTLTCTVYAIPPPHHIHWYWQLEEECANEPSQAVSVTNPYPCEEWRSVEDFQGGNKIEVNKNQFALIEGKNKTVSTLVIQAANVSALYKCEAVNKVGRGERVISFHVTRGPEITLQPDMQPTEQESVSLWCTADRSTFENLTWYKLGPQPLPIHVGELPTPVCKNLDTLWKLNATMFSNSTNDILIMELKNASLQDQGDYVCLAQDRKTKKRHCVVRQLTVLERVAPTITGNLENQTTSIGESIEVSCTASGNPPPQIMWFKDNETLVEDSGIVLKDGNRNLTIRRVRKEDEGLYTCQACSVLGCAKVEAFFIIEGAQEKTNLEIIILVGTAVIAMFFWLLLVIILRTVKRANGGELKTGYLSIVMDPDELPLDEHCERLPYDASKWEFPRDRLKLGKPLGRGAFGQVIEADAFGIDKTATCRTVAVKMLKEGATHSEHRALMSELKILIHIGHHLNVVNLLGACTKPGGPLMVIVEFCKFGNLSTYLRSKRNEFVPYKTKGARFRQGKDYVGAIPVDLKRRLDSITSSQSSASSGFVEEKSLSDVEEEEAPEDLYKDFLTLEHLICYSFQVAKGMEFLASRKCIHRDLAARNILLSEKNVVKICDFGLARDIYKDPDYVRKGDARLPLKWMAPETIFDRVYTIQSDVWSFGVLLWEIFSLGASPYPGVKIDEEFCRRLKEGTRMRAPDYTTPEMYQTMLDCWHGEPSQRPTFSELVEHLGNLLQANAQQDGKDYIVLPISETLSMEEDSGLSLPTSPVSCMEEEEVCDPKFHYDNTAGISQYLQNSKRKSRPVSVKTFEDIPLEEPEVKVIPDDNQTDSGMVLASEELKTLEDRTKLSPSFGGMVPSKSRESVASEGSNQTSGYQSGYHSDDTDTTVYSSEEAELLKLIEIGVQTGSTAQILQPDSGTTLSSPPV
T1 sequence (P35968 806-1356): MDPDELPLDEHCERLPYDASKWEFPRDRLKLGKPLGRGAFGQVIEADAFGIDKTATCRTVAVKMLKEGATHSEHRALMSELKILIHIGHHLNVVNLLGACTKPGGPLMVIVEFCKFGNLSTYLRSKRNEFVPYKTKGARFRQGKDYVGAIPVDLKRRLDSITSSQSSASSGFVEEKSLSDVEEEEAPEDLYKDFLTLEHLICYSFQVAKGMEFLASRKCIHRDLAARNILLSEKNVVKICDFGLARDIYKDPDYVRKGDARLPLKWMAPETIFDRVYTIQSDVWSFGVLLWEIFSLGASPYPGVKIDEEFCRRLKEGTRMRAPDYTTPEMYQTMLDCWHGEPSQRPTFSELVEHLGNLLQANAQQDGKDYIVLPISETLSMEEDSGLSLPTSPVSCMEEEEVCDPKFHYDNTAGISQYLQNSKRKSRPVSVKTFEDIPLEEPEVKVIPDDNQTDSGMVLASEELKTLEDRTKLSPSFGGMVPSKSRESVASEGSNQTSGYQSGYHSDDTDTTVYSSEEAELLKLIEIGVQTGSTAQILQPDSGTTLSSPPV

SMILES | melting point | IC50 ([1]; no wash) | IC50 ([1]; wash out) | IC50 [3] | IC50 ([4]; ATP conc. 10 μM) | inhibition at 1 µM [4, 6] | inhibition at 1 µM [4, 7] | % Inhibition of KDR kinase autophosphorylation in KDR15 cells [5] | inhibition at 0.1 µM [4, 8] | inhibition at 1 µM [3] | inhibition at 0.1 µM ([2]; conc. 100 nM) | inhibition at 1 µM ([2]; conc. 1000 nM) | inhibition at 10 µM ([2]; conc. 10000 nM) | also measured
COCCOc1cc2ncnc(NC3=CC(=O)C(N(C)C4CCCCC4)=CC3=O)c2cc1OC [Example 80, 2-[cyclohexyl(methyl)amino]-5-{[6-methoxy-7-(2-methoxyethoxy)quinazolin-4-yl]amino}benzo-1,4-quinone] | 178 to 180 °C | – | – | < 62.5 nM | 654 nM | – | – | 52% | – | – | 39% | 85% | 97% | –
COc1cc2ncnc(NC3=CC(=O)C=C(C)C3=O)c2cc1OC [Example 7, 2-[(6,7-dimethoxy-4-quinazolinyl)amino]-6-methylbenzo-1,4-quinone] | – | 2.3 nM | 1.2 nM | 250 nM | 2.3 nM and 1.3 nM | 96% | 97% | 41% | 85% | – | 23% | 79% | 97% | inhibition at 10 µM ([4]; Concentration 10000 nM, ATP conc. 10 μM): 96%
COc1cc2ncnc(NC3=CC(=O)C(c4ccccc4)=CC3=O)c2cc1OC [Example 99, 2-[(6,7-dimethoxyquinazolin-4-yl)amino]-5-phenylbenzo-1,4-quinone] | 200 to 205 °C | – | – | – | – | 92% | 96% | 29% | 93% | 20% | – | – | – | –
COCCOc1cc2ncnc(NC3=CC(=O)C4(C)OC4C3=O)c2cc1OC (stereo not shown) [Example 106, 4-{[6-methoxy-7-(2-methoxyethoxy)-4-quinazolinyl]amino}-1-methyl-7-oxabicyclo[4.1.0]hept-3-ene-2,5-dione] | – | – | – | – | 339 nM | 69% | 70% | 78% and 100% and 59% | – | – | – | – | – | –
COCCOc1cc2ncnc(NC3=CC(=O)C(Oc4ccc(S(N)(=O)=O)cc4)=CC3=O)c2cc1OC [Example 38, 4-[(4-{[6-methoxy-7-(2-methoxyethoxy)quinazolin-4-yl]amino}-3,6-dioxocyclohexa-1,4-dien-1-yl)oxy] benzenesulfonamide] | – | – | – | – | – | – | – | 97% | – | – | – | – | – | % Inhibition [4, 8]: 93%; % Inhibition [4, 6]: 95%
COc1cc2ncnc(NC3=CC(=O)C(C)=CC3=O)c2cc1OC [Example 4, 2-[(6,7-dimethoxy-4-quinazolinyl)amino]-5-methylbenzo-1,4-quinone] | – | 285 nM | > 1000 nM | < 15.6 nM | 80.5 nM and 285 nM and 707 nM | 15% | 12% | 106% | – | 100% | – | – | – | Behaviour as reversible or irreversible binding inhibitor ([1]; IC50 with wash-out step compared to no wash-out step): appear to act like reversible binding inhibitors
COc1cc2ncnc(NC3=CC(=O)C(Oc4ccc(Cl)cc4)=CC3=O)c2cc1OC [Example 94, 2-(4-chlorophenoxy)-5-[(6,7-dimethoxyquinazolin-4-yl)amino]benzo-1,4-quinone] | – | – | – | 386 nM | 4 nM | 94% | 96% | 40% and 54% and 64% | 93% | – | 28% | 60% | 94% | % Inhibition of VEGF-dependent growth of HUVEC ([2]; conc. 100 nM): 20%; % Inhibition of VEGF-dependent growth of HUVEC ([2]; conc. 1000 nM): 52%; % Inhibition of VEGF-dependent growth of HUVEC ([2]; conc. 10000 nM): 78%
COc1cc2ncnc(NC3=CC(=O)C(C(C)C)=CC3=O)c2cc1OC [Example 9, 2-[(6,7-dimethoxy-4-quinazolinyl)amino]-5-isopropylbenzo-1,4-quinone] | – | – | – | – | – | 58% | 33% | 55% and 94% | 24% | – | – | – | – | –
COc1cc2ncnc(NC3=CC(=O)C(Cl)=CC3=O)c2cc1OC [Example 2, 2-chloro-5-[(6,7-dimethoxy-4-quinazolinyl)amino]benzo-1,4-quinone] | – | – | – | – | 5.1 nM | 96% | 98% | 12% | 83% | 18% | – | – | – | –
COCCOc1cc2ncnc(NC3=CC(=O)C(OCc4ccccc4)=CC3=O)c2cc1OC [Example 96, 2-(benzyloxy)-5-{[6-methoxy-7-(2-methoxyethoxy)quinazolin-4-yl]amino}benzo-1,4-quinone] | 218 to 220 °C | – | – | – | 52.8 nM | 91% | 96% | 22% | 67% | 26% | – | – | – | –

More lines, main results first:

melting point | IC50 ([1]; no wash) | IC50 ([1]; wash out) | IC50 [3] | IC50 ([4]; ATP conc. 10 μM) | inhibition at 1 µM [4, 6] | inhibition at 1 µM [4, 7] | % Inhibition of KDR kinase autophosphorylation in KDR15 cells [5] | inhibition at 0.1 µM [4, 8] | inhibition at 1 µM [3] | SMILES | inhibition at 0.1 µM ([2]; conc. 100 nM) | inhibition at 1 µM ([2]; conc. 1000 nM) | inhibition at 10 µM ([2]; conc. 10000 nM) | also measured
134 to 137 °C | 8.8 nM | 18.5 nM | 236 nM and 147 nM | 30 nM and 7.5 nM and 8.8 nM | 94% | 96% | – | – | – | COCCOc1cc2ncnc(NC3=CC(=O)C(Oc4ccccc4C)=CC3=O)c2cc1OC [Example 90, 2-{[6-methoxy-7-(2-methoxyethoxy)quinazolin-4-yl]amino}-5-(2-methylphenoxy)benzo-1,4-quinone] | 22% | 15% | 95% | inhibition at 0.2 µM ([3]; read-out: % Inhibition of KDR kinase autophosphorylation in KDR15 cells, compound conc. 200 nM): 29%; % Inhibition [4, 7]: 97%
189 to 190 °C | 18.9 nM | 18.9 nM | – | 18.9 nM | 96% | 97% | – | 76% | 55% | COCCOc1cc2ncnc(NC3=CC(=O)C(Oc4cccnc4)=CC3=O)c2cc1OC [Example 91, 2-{[6-methoxy-7-(2-methoxyethoxy)quinazolin-4-yl]amino}-5-(pyridin-3-yloxy)benzo-1,4-quinone] | 0% | 15% | 93% | –
– | – | – | < 15.6 nM | 1840 nM and > 1000 nM | 30% | -2% | 90% and 143% and 113% | – | – | COCCOc1cc2ncnc(NC3=CC(=O)C(N(C)c4ccc(OC)c(OC)c4)=CC3=O)c2cc1OC [Example 73, 2-[(3,4-dimethoxyphenyl)(methyl)amino]-5-{[6-methoxy-7-(2-methoxyethoxy)quinazolin-4-yl]amino}benzo-1,4-quinone] | – | – | – | inhibition at 10 µM ([4]; Concentration not given, ATP conc. 10 μM): 13%
197 to 198 °C | 147 nM and 95.9 nM | 514 nM and 150 nM | – | 147 nM and 95.9 nM and 406 nM | – | – | 61% | – | – | COCCOc1cc2ncnc(NC3=CC(=O)C(N(C)c4ccc(OC)cc4)=CC3=O)c2cc1OC [Example 78, 2-{[6-methoxy-7-(2-methoxyethoxy)quinazolin-4-yl]amino}-5-[(4-methoxyphenyl)(methyl)amino]benzo-1,4-quinone] | 6% | – | – | % Inhibition of VEGF-dependent growth of HUVEC ([2]; conc. 100 nM): 9%; % Inhibition of VEGF-dependent growth of HUVEC ([2]; conc. 10000 nM): 94% and 99% and 74%
– | 93 nM | 161 nM | – | 93 nM | 92% | 93% | 61% | 47% | 45% | COCCOc1cc2ncnc(NC3=CC(=O)C(N(C)c4ccc(N(C)C)cc4)=CC3=O)c2cc1OC [Example 75, 2-[[4-(dimethylamino)phenyl](methyl)amino]-5-{[6-methoxy-7-(2-methoxyethoxy)quinazolin-4-yl]amino}benzo-1,4-quinone] | -22% | 41% | 91% | –
